Results: article PMC11968843, “Sulphostin-inspired N-phosphonopiperidones as selective covalent DPP8 and DPP9 inhibitors” (Nature Communications, 2025)
Values joined by “and” are separate entries in the source; they are usually repeats but may differ in a detail not shown here. Equal values may be shown once.

Assays:
Assay in all cases: Competitive ABPP / direct target identification with alkyne probe 9 in HEK293 cell lysates
Assay type in all cases: binding, H. sapiens
[1] = target: T1, HEK293 cell lysates (proteome-wide targets of probe 9) (Homo sapiens, UniProt P62937); conditions: protein PPIA
T1 construct: endogenous in cells; host or cells: HEK293 cell lysate

[2] = target: T2, HEK293 cell lysates (proteome-wide targets of probe 9) (Homo sapiens, UniProt P04259); conditions: protein KRT6B
T2 construct: endogenous in cells; host or cells: HEK293 cell lysate

[3] = target: T3, HEK293 cell lysates (proteome-wide targets of probe 9) (Homo sapiens, UniProt P06748); conditions: protein NPM1
T3 construct: endogenous in cells; host or cells: HEK293 cell lysate

[4] = target: T4, HEK293 cell lysates (proteome-wide targets of probe 9) (Homo sapiens, UniProt P63104); conditions: protein YWHAZ
T4 construct: endogenous in cells; host or cells: HEK293 cell lysate

[5] = target: T5, HEK293 cell lysates (proteome-wide targets of probe 9) (Homo sapiens, UniProt P53396); conditions: protein ACLY
T5 construct: endogenous in cells; host or cells: HEK293 cell lysate

[6] = target: T6, HEK293 cell lysates (proteome-wide targets of probe 9) (Homo sapiens, UniProt Q5T749); conditions: protein KPRP
T6 construct: endogenous in cells; host or cells: HEK293 cell lysate

[7] = target: T7, HEK293 cell lysates (proteome-wide targets of probe 9) (Homo sapiens, UniProt P14923); conditions: protein JUP
T7 construct: endogenous in cells; host or cells: HEK293 cell lysate

[8] = target: T8, HEK293 cell lysates (proteome-wide targets of probe 9) (Homo sapiens, UniProt P37802); conditions: protein TAGLN2
T8 construct: endogenous in cells; host or cells: HEK293 cell lysate

[9] = target: T9, HEK293 cell lysates (proteome-wide targets of probe 9) (Homo sapiens, UniProt P52292); conditions: protein KPNA2
T9 construct: endogenous in cells; host or cells: HEK293 cell lysate

[10] = target: T10, HEK293 cell lysates (proteome-wide targets of probe 9) (Homo sapiens, UniProt Q13642); conditions: protein FHL1
T10 construct: endogenous in cells; host or cells: HEK293 cell lysate

[11] = target: T11, HEK293 cell lysates (proteome-wide targets of probe 9) (Homo sapiens, UniProt O15372); conditions: protein EIF3H
T11 construct: endogenous in cells; host or cells: HEK293 cell lysate

[12] = target: T12, HEK293 cell lysates (proteome-wide targets of probe 9) (Homo sapiens, UniProt P48147); conditions: protein PREP (Prolyl endopeptidase)
T12 construct: endogenous in cells; host or cells: HEK293 cell lysate

[13] = target: T13, HEK293 cell lysates (proteome-wide targets of probe 9) (Homo sapiens, UniProt P22314); conditions: protein UBA1
T13 construct: endogenous in cells; host or cells: HEK293 cell lysate

[14] = target: T14, HEK293 cell lysates (proteome-wide targets of probe 9) (Homo sapiens, UniProt Q04837); conditions: protein SSBP1
T14 construct: endogenous in cells; host or cells: HEK293 cell lysate

[15] = target: T15, HEK293 cell lysates (proteome-wide targets of probe 9) (Homo sapiens, UniProt P61247); conditions: protein RPS3A
T15 construct: endogenous in cells; host or cells: HEK293 cell lysate

[16] = target: T16, HEK293 cell lysates (proteome-wide targets of probe 9) (Homo sapiens, UniProt P46776); conditions: protein RPL27A
T16 construct: endogenous in cells; host or cells: HEK293 cell lysate

[17] = target: T17, HEK293 cell lysates (proteome-wide targets of probe 9) (Homo sapiens, UniProt P60866); conditions: protein RPS20
T17 construct: endogenous in cells; host or cells: HEK293 cell lysate

[18] = target: T18, HEK293 cell lysates (proteome-wide targets of probe 9) (Homo sapiens, UniProt P05165); conditions: protein PCCA
T18 construct: endogenous in cells; host or cells: HEK293 cell lysate

[19] = target: T19, HEK293 cell lysates (proteome-wide targets of probe 9) (Homo sapiens, UniProt P14174); conditions: protein MIF
T19 construct: endogenous in cells; host or cells: HEK293 cell lysate

[20] = target: T20, HEK293 cell lysates (proteome-wide targets of probe 9) (Homo sapiens, UniProt P09651); conditions: protein HNRNPA1
T20 construct: endogenous in cells; host or cells: HEK293 cell lysate

[21] = target: T21, HEK293 cell lysates (proteome-wide targets of probe 9) (Homo sapiens, UniProt Q6V1X1)
T21 construct: endogenous in cells; host or cells: HEK293 cell lysate

[22] = target: T22, HEK293 cell lysates (proteome-wide targets of probe 9) (Homo sapiens, UniProt Q96RQ3); conditions: protein MCCC1
T22 construct: endogenous in cells; host or cells: HEK293 cell lysate

[23] = target: T23, HEK293 cell lysates (proteome-wide targets of probe 9) (Homo sapiens, UniProt P22234); conditions: protein PAICS
T23 construct: endogenous in cells; host or cells: HEK293 cell lysate

[24] = target: T24, HEK293 cell lysates (proteome-wide targets of probe 9) (Homo sapiens, UniProt P31948); conditions: protein STIP1
T24 construct: endogenous in cells; host or cells: HEK293 cell lysate

[25] = target: T25, HEK293 cell lysates (proteome-wide targets of probe 9) (Homo sapiens, UniProt P19338); conditions: protein NCL
T25 construct: endogenous in cells; host or cells: HEK293 cell lysate

[26] = target: T26, HEK293 cell lysates (proteome-wide targets of probe 9) (Homo sapiens, UniProt Q02878); conditions: protein RPL6
T26 construct: endogenous in cells; host or cells: HEK293 cell lysate

[27] = target: T27, HEK293 cell lysates (proteome-wide targets of probe 9) (Homo sapiens, UniProt P49368); conditions: protein CCT3
T27 construct: endogenous in cells; host or cells: HEK293 cell lysate

[28] = target: T28, HEK293 cell lysates (proteome-wide targets of probe 9) (Homo sapiens, UniProt P11586); conditions: protein MTHFD1
T28 construct: endogenous in cells; host or cells: HEK293 cell lysate

[29] = target: T29, HEK293 cell lysates (proteome-wide targets of probe 9) (Homo sapiens, UniProt O43175); conditions: protein PHGDH
T29 construct: endogenous in cells; host or cells: HEK293 cell lysate

[30] = target: T30, HEK293 cell lysates (proteome-wide targets of probe 9) (Homo sapiens, UniProt P00558); conditions: protein PGK1
T30 construct: endogenous in cells; host or cells: HEK293 cell lysate

[31] = target: T31, HEK293 cell lysates (proteome-wide targets of probe 9) (Homo sapiens, UniProt P05387); conditions: protein RPLP2
T31 construct: endogenous in cells; host or cells: HEK293 cell lysate

[32] = protein DPP8 (Dipeptidyl peptidase 8)

C#CCCCP(=O)(OCC)N1CCCC(N)C1=O.O=C(O)C(F)(F)F (mixture of isomers) [Compound 9]
Log2-fold change (9/DMSO) [1]: 1.44
Log2-fold change (9/DMSO) [2]: -0.8544
Log2-fold change (9/DMSO) [3]: 0.3807
Log2-fold change (9/DMSO) [4]: 0.2647
Log2-fold change (9/DMSO) [5]: 0.4032
Log2-fold change (9/DMSO) [6]: -0.1834
Log2-fold change (9/DMSO) [7]: 0.133
Log2-fold change (9/DMSO) [8]: 0.4985
Log2-fold change (9/DMSO) [9]: 0.6086
Log2-fold change (9/DMSO) [10]: -0.4077
Log2-fold change (9/DMSO) [11]: 0.7356
Log2-fold change (9/DMSO) [12]: 4.8
Log2-fold change (9/DMSO) [13]: 0.5182
Log2-fold change (9/DMSO) [14]: -1.05
Log2-fold change (9/DMSO) [15]: 0.9053
Log2-fold change (9/DMSO) [16]: -2.372
Log2-fold change (9/DMSO) [17]: 0.9458
Log2-fold change (9/DMSO) [18]: -0.691
Log2-fold change (9/DMSO) [19]: 2.233
Log2-fold change (9/DMSO) [20]: 0.5741
Initial LFQ intensity of DPP8 (log2-transformed) ([21]; labeled with 9, single replicates): 21.9345 and 21.2153 and 19.9933
Log2-fold change (9/DMSO) [21, 32]: 1.124
Log2-fold change (9/DMSO) [22]: -0.5895
Log2-fold change (9/DMSO) [23]: -0.1992
Log2-fold change (9/DMSO) [24]: 1.191
Log2-fold change (9/DMSO) [25]: 1.258
Log2-fold change (9/DMSO) [26]: 0.5143
Log2-fold change (9/DMSO) [27]: 1.2654
Log2-fold change (9/DMSO) [28]: 0.4766
Log2-fold change (9/DMSO) [29]: 0.8847
Log2-fold change (9/DMSO) [30]: -0.05307
Log2-fold change (9/DMSO) [31]: 0.606

CCCCCc1ccc(SCCP(=O)(OCC)N2CCC[C@H](N)C2=O)cc1.O=C(O)C(F)(F)F (stereo partly shown) [Compound 16]
Log2-fold change (16/9) [1]: -1.716
Log2-fold change (16/9) [2]: 1.89
Log2-fold change (16/9) [3]: -0.43
Log2-fold change (16/9) [4]: 0.4135
Log2-fold change (16/9) [5]: -0.4196
Log2-fold change (16/9) [6]: 0.315
Log2-fold change (16/9) [7]: -0.03524
Log2-fold change (16/9) [8]: -0.3112
Log2-fold change (16/9) [9]: -0.6819
Log2-fold change (16/9) [10]: 0.2096
Log2-fold change (16/9) [11]: -0.06894
Log2-fold change (16/9) [12]: -0.8405
Log2-fold change (16/9) [13]: -0.4211
Log2-fold change (16/9) [14]: -1.78
Log2-fold change (16/9) [15]: -0.3832
Log2-fold change (16/9) [16]: 0.01928
Log2-fold change (16/9) [17]: -0.8733
Log2-fold change (16/9) [18]: 0.1044
Log2-fold change (16/9) [19]: -0.05345
Log2-fold change (16/9) [20]: -1.553
DPP8 identification after pre-incubation with competitor ([21]; labeled with 9, pre-incubated with competitor): peptides of DPP8 were identified
Log2-fold change (16/9) [21, 32]: -1.618
Log2-fold change (16/9) [22]: 0.1036
Log2-fold change (16/9) [23]: 0.0197
Log2-fold change (16/9) [24]: -0.3266
Log2-fold change (16/9) [25]: -1.045
Log2-fold change (16/9) [26]: 0.35
Log2-fold change (16/9) [27]: -1.0355
Log2-fold change (16/9) [28]: -0.2924
Log2-fold change (16/9) [29]: -0.3162
Log2-fold change (16/9) [30]: 0.07234
Log2-fold change (16/9) [31]: -0.0326
